Test results as given in patent publication US4430328A, “Ruminant lactation improvement” (Eli Lilly and Company, priority 1982, dated 1984).

Columns and labels:
dairy cows = conditions: cited from earlier work
Holstein cows = assay: nine-week comparative activity and persistency test of glycopeptides; assay type: in vivo; conditions: 600 mg/head/day
Method: Another test was carried out to determine the comparative activity of glycopeptides and their persistency in altering milk production. Holstein cows were assigned as they calved to blocks of […] cows each. Within each block a random order of treatments was assigned. A nine-week study was started two weeks following calving. All cows underwent a one week preliminary period during which they received corn silage-concentrate, grain, hay and water. During the following eight week period, in addition to the normal feed ration, one group of six animals received no treatment (controls), another group of six animals received 600 mg/head/day actaplanin, and a third group of six cows received 600 mg/head/day of glycopeptide A35512B. Average daily milk production, milk composition, and persistency of milk production were analyzed. The data in Table VI are the averages for the daily determinations for the entire nine week trial period. The table reports average milk production and milk composition of nontreated controls and treated groups. The persistency values were calculated by dividing the average milk production during the eight week treatment period by average production during the preliminary non-treatment period. Persistency values express how well the treatment groups performed after initialization of treatment compared to performance before treatment initialization. Normal persistency for the trial was expected to be about 94 to about 96 percent. All treatment groups had higher persistencies, thus indicating an observable response to treatment even during a short term.

SMILES | fat content of milk (dairy cows) | fat-corrected-milk production (dairy cows) | volume of milk produced (dairy cows) | Milk Composition Fat (Holstein cows) | Milk Composition Protein (Holstein cows) | Milk Composition Solids (Holstein cows) | protein content compared to non-treated controls (Holstein cows) | Milk Produced (Holstein cows; average of daily determinations, nine week trial) | Persistency (Holstein cows; average production in eight week treatment period divided by preliminary period)
CC[C@@]1([C@@H]2O[C@@H]([C@H]3O[C@@](O)(CO)[C@H](C)C[C@@H]3C)C[C@@H]2C)CC[C@H]([C@]2(C)CC[C@]3(C[C@H](O)[C@@H](C)[C@@H]([C@@H](C)[C@@H](OC)[C@H](C)C(=O)O)O3)O2)O1 [monensin] | significantly reduced | unchanged | increase | – | – | – | – | – | –
COC(=O)[C@H]1NC(=O)[C@H]2NC(=O)[C@H](NC(=O)[C@@H]3NC(=O)C4NC(=O)[C@H](NC(=O)[C@H](N)c5cccc(O)c5Oc5cc(O[C@@H]6O[C@H](C)[C@H](O)[C@H](O)[C@@H]6O)c(Cl)c4c5)[C@H](O)c4ccc(cc4)Oc4cc3cc(c4O[C@@H]3O[C@H](CO)[C@@H](O)[C@@H](O[C@@H]4O[C@@H](C)[C@@H](O)[C@@H](O)[C@H]4O)[C@H]3O)Oc3ccc(cc3)[C@H]2O[C@H]2C[C@](C)(N)[C@H](O)[C@H](C)O2)c2ccc(O[C@H]3O[C@@H](CO)[C@H](O)[C@@H](O)[C@@H]3O)c(c2)-c2c(O)cc(O)cc21 [A35512B] | – | – | – | 3.36% | 3.36% | 11.44% | may be enhanced | 56.0 pounds/day | 99.4%
